{"source": "patent US7700553B2", "about": "“Selective inhibition of NF-κB activation by peptides designed to disrupt nemo oligomerization” (priority 2003, dated 2010)", "key": {"[1]": {"test_system": "LPS-induced NF-κB activation in 70Z/3-C3 cells", "assay": "NF-κB inhibition assay, first procedure (NF-κB dependent β-galactosidase reporter, LPS stimulation)", "type": "cell-based, murine", "details": "20 μM peptide; for effect on LPS-induced NF-κB activation (in words): 2 h, then 5 h LPS", "description": "The resulting cell line, 70Z3-C3, was incubated for 2 hours in the absence or in the presence of 20 μM of antennapedia peptide (Ant), or BODIPY-labeled antennapedia peptide (BODIPY-Ant), or BODIPY-labeled antennapedia peptide coupled to CC2 (BODIPY-Ant-CC2) or LZ (BODIPY-Ant-LZ) peptides, After peptide internalization, cells were treated for 5 hours with LPS (3 μg/ml, (+) in left panel) or untreated (right panel and (−) in left panel) and the NF-κB activity was measured by β-galactosidase assay. […] Cells were treated as in (A) but with different concentration of peptide as indicated. The potential of each peptide to inhibit LPS-induced NF-κB activation was measured by determining the IC50 value that correspond to 50% inhibition of LPS-induced NF-κB activation as compared to the control (no peptide) (C). […] Control (no peptide) or CC2, or LZ peptides, with (BODIPY-ANT-CC2, BODIPY-ANT-LZ) or without the antennapedia sequence at the N-terminus (CC2, LZ) were incubated for 2 hours with 70Z3-C3 cells followed with (+) or without (−) the LPS-treatment for 3 hours. NF-κB activity was then measured by β-galactosidase assay.\nIn a first procedure 2.2×10^5 70Z/3-C3 cells in 220 μl of RPMI 1640 supplemented with 10% fetal calf serum (FCS) and 50 μM β-mercaptoethanol were placed in a 96-well plate and incubated with various concentrations of peptide (0 to 20 μM) at 37° C. in 5% CO2 incubator. After two hours an equal portion (100 μl) of each cell sample transferred in two wells containing each 10^5 cells. One aliquot of cells was then treated for 5 hours with lipopolysaccharides from Salmonella abortus (Sigma) at 0.5 μg/ml final concentration, and the other one left-treated. After 5 hours, cells were centrifuged at 400×g for 5 min at room temperature and the cell pellets were washed three times with cold PBS (250 μl) by centrifugation. Cells were then lysed in the lysis buffer (25 mM tris-phosphate buffer at pH 7.8 containing 8 mM magnesium chloride, 1 mM dithioerythreitol, 1% Triton X-100, 15% glycerol and a protease inhibitor mixture (Roche)), and samples were centrifuged at 4° C. for 20 min to clarify the lysate. The supernatant was then kept on ice, and 30 μl was then assayed to measure the β-galactosidase activity with a plate luminometer (Berthold) using the galacton-star as chemiluminescent substrate (BD Biosciences Clontech, Bronstein et al., 1989). Background of reaction was measured by mixing for 1 hour 30 μl of lysis buffer with the reaction buffer (196 μl) and the galacton-star substrate (4 μl) provided by BD Biosciences."}, "[2]": {"target": "T1, CC2 peptide composing the minimal oligomerization domain of NEMO (Mus musculus, UniProt O88522)", "T1 construct": "SKGMQLEDLRQQLQQAEEA; made in house; host or cells: chemical solid-phase peptide synthesis (Fmoc/tBu), not expressed", "T1 sequence (O88522 248-287)": "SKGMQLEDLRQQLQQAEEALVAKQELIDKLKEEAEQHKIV", "assay": "Fluorescence anisotropy titration with CC2 peptide", "type": "binding, murine", "details": "in vitro, fluorescence polarization", "procedure": "FIG. 7: Association of Ant-CC2 and Ant-LZ Peptides to the CC2 Peptide (A) Direct titration of BODIPY-Ant-CC2 (1 μM) with CC2 by fluorescence anitropy. The concentration of CC2 was determined by amino acid analysis. Anisotropy values of BODIPY-Ant-CC2 in milliunits (mA) were plotted against an increasing concentration of the CC2 peptide. […] The two dashed lines represent a stoichiometric titration and intersect at an CC2 concentration of […]. Given the 1 μM concentration of the BODIPY-Ant-CC2, this gives a complex stoechiometrie of 0.8. (B) Direct titration of BODIPY-Ant-LZ (0.1 μM with CC2 by fluorescence anitropy. The anisotropy values of the BODIPY-Ant-LZ alone (white bar) or in the presence of the CC2 peptide (30 μM, grey bar; 100 μM, black bar) are given in milliunits (mA).\nAnisotropy measurements were performed with a PTI Quantamaster fluorometer equipped with polarizers for the excitation and emission beams. This instrument uses a PMT in the L-configuration. […] Steady-state fluorescence anisotropy was expressed as millianisotropy (mA) and was calculated according to the equations: (1) A=(IVV−GIVH)/(IVV+2GIVH); (2) G=IHV/IHH; where A is anisotropy, G is a correction factor for wavelength-dependent distortion and I is the fluorescence intensity component (subscript referring to the vertical and horizontal positioning at the excitation and emission polarizers, respectively). […]"}, "[3]": {"test_system": "LPS-induced NF-κB activation in 70Z/3-C3 cells", "assay": "NF-κB inhibition assay, second more stringent procedure (peptide washed out, 24 h growth before LPS)", "type": "cell-based, murine", "details": "10 μM peptide", "from_the_text": "FIG. 4: Specific Inhibition of NF-κB Activation in Response to LPS Depends on a Few Mutations in the Hydrophobic Core of CC2 and LZ Coiled-Coils Left panels show a helical wheel diagram of CC2 (A) and LZ (B) peptides. The view is from the top the molecule. The (a) through (g) positions, which are an essential feature of coiled coil sequence (Vinson, 2002, Mol. Cell. Biol.) represent sequential positions in each peptide sequence. The first (a) and fourth (d) positions that are generally occupied by hydrophobic amino acids constitute the hydrophobic core for parallel as well as antiparallel-coiled coils. […] NF-κB activity was measured using the β-galactosidase assay. […]\nFIG. 5: Inhibition of NF-κB Activation by the LZ Peptide Occurs Through the Formation of Specific Coiled-Coil Strands. […] NF-κB activity was measured using the β-galactosidase assay. […]"}}, "note": "Ends that are not written are not given here. BODIPY = not defined here"}
{"substance": "B-CRQIKIWFQNRRMKWKKLKAQADIYKADFQAERHAREKLVEKKEYLQEQLEQLQREFNKL (C(BODIPY)RQIKIWFQNRRMKWKKLKAQADIYKADFQAERHAREKLVEKKEYLQEQLEQLQREFNKL-NH2; not fully specified (N-terminus); reading uncertain) [BODIPY-Ant-LZ (WT)]", "values": [{"measurement": "effect on LPS-induced NF-κB activation (in words)", "setting": "[1]", "result": "decreased significantly the NF-κB activation"}, {"measurement": "effect on LPS-induced NF-κB activation (in words)", "setting": "[1]; listed as “Leucine zipper” peptide", "result": "completely eliminates cell response"}, {"measurement": "basal NF-κB activity in the absence of LPS (in words)", "setting": "[1]; no LPS", "result": "without affecting the intrinsic basal NF-κB activity"}, {"measurement": "binding to the CC2 peptide (in words)", "setting": "[2]", "result": "binds in vitro to the CC2 peptide"}]}
{"substance": "B-CRQIKIWFQNRRMKWKKLKAQADIYKADFQAERHAREKLVEKKEYSQEQLEQSQREFNKL (C(BODIPY)RQIKIWFQNRRMKWKKLKAQADIYKADFQAERHAREKLVEKKEYSQEQLEQSQREFNKL-NH2; not fully specified (N-terminus); printed as B-CRQIKIWFQNRRMKWKKLKAQADIYKADFQAERHAREKLVEKKEYSQEQLEQSQREFNKL; reading uncertain) [BODIPY-Ant-LZ (Mu)]", "values": [{"measurement": "inhibition of LPS-induced NF-κB activation compared to the control", "setting": "[3]", "result": 15, "unit": "%"}]}
{"substance": "B-CRQIKIWFQNRRMKWKKSKGMQLEDLRQQGQQAEEAGVAKQELGDKLKEEAEQHKIV (C(BODIPY)RQIKIWFQNRRMKWKKSKGMQLEDLRQQGQQAEEAGVAKQELGDKLKEEAEQHKIV-NH2; not fully specified (N-terminus); printed as B-CRQIKIWFQNRRMKWKKSKGMQLEDLRQQGQQAEEAGVAKQELGDKLKEEAEQHKIV; reading uncertain) [BODIPY-Ant-CC2 (Mu)]", "values": [{"measurement": "effect on LPS-induced NF-κB activation (in words)", "setting": "[3]", "result": "did not affect the NF-κB activation"}]}
